Reference: patent US7547687B2, “Therapeutic treatment methods” (priority 2002, dated 2009)

Test system: U937 human promonocytic leukemia cells
Experiment: Microarray analysis of transcript levels in PMA-treated U937 cells exposed to BrEA
Type: cell-based
Conditions: for Ratio of BrEA treated cells compared to control cells (transcript level): 10 μM BrEA, PMA-treated U937 cells
Description: Modulation of transcription. The effect of 16α-bromoepiandrosterone (“BrEA”) on transcript levels in cells in vitro was studied using a microarray to allow simultaneous monitoring of the expression of many genes to allow detailed analysis of the molecular pathways involved in biological responses to the compound.
In general, microarray technology works by covalently linking short DNA sequences that are complementary to the transcripts of many different genes on a single slide or array chip. mRNAs from test and control samples are generated and labeled with one or more colored fluorescent dyes or probes. The probes are hybridized with the array, which is then scanned by laser. The color and intensity of the fluorescent signal at each spot denotes relative expression level of each gene. The capacity of other F1Cs described herein, e.g., a F1C in compound group 1, 2, 3, 4 or 5, to modulate gene expression is characterized in a similar manner.
The array used in the experiment described below, contained about 12,000 known genes. The experiment used U937 human promonocytic leukemia cells that differentiate to monocyte/macrophage cells in the presence of phorbol-12-myristate-13-acetate (“PMA”). The U937 cells were PMA treated and then exposed to BrEA for 1 hr, 2 hrs, or 4 hrs, followed by bacterial lipopolysaccharide (“LPS”) stimulation for 1 hr, 2 hrs or 4 hrs. The level of transcripts of the genes on the array was measured at the time points using RNA prepared from BrEA-treated and control (no BrEA) cells. U937 cells were plated at 1×10^5 cells/mL in the presence of 3 ng/mL PMA (Sigma, Catalog #P-8139) for 48 hrs. Cells were then treated with either 10 μM BrEA or DMSO (vehicle) for 1 hr, 2 hr, and 4 hrs. At each time point, cells were harvested and total RNA was extracted using Qiagen Rneasy kit according to manufacturer's specification. Total RNA samples were then analyzed by Mergen Ltd. (San Leandro, Calif. www.mergen.com) to perform microarray assay.
For the microarray assay, Dnase-treated total RNA (20 micrograms) was reverse-transcribed using an oligo[(dT)24 T7 promoter]65 primer (consisting of the nucleotide binding sequence for the T7 RNA polymerase followed by 24 thymidine nucleotides). This was followed by second strand synthesis. The reaction mixture was then treated with Rnase I to digest the remaining RNA. The double-stranded cDNA was phenol-chloroform extracted and used as template for in vitro transcription (T7 MEGAscript, Ambion, Inc.) to generate biotin-labeled cRNA probes. These probes were hybridized overnight at 30° C. with continuous agitation to Mergen's ExpressChip HO5 DNA Microarray System (catalog number HO5-001) containing 12,000 genes. The arrays were then washed, and hybridized probes were detected using Mergen's cyanine-3 fluorescent dye-conjugated protein. Chips were imaged using an Affymetrix 417-418 form Affymetrix/Genetic MicroSystems (www.affymetrix.com) and spot intensity was quantitated using ImaGenefrom BioDiscovery Inc. .______
The up-regulation of many of these genes most apparent at 4 hr after treatment, at which time roughly 700 genes were within the above criteria. Some examples are shown in the following list. The ratios given in the list are from BrEA treated cells compared to control cells not treated with BrEA.

## C[C@]12CC[C@H](O)C[C@@H]1CC[C@@H]1[C@@H]2CC[C@]2(C)C(=O)[C@H](Br)C[C@@H]12 [BrEA, 16α-bromoepiandrosterone]
4 hr after treatment, array of about 12,000 genes
  number of genes up-regulated (at least two-fold higher than control and significantly higher than background): roughly 700 genes
At 1 hr
  transcripts of Cul1: increased
  transcripts of EGR1: increased
  transcripts of USF1: increased
  transcripts of c-Fos: increased
At 4 hrs
  Jun B transcript: increased
Gene ATF3 (Hs.460)
  Ratio of BrEA treated cells compared to control cells (transcript level): 5.3
Gene ATP2B1 (Hs.78546)
  Ratio of BrEA treated cells compared to control cells (transcript level): 5.4
Gene DUSP5 (Hs.2128)
  Ratio of BrEA treated cells compared to control cells (transcript level): 10.2
Gene EHD1 (Hs.155119)
  Ratio of BrEA treated cells compared to control cells (transcript level): 9.7
Gene GG2-1 (Hs.17839)
  Ratio of BrEA treated cells compared to control cells (transcript level): 10.3
Gene GRO2 (Hs.75765)
  Ratio of BrEA treated cells compared to control cells (transcript level): 9.6
Gene GRO3 (Hs.89690)
  Ratio of BrEA treated cells compared to control cells (transcript level): 124.7
Gene HIVEP2 (Hs.75063)
  Ratio of BrEA treated cells compared to control cells (transcript level): 6.6
Gene HSPA1B (Hs.274402)
  Ratio of BrEA treated cells compared to control cells (transcript level): 7.8
Gene IL1B (Hs.126256)
  Ratio of BrEA treated cells compared to control cells (transcript level): 27.5
Gene IL1RN (Hs.81134)
  Ratio of BrEA treated cells compared to control cells (transcript level): 53.0
Gene IL15RA (Hs.12503)
  Ratio of BrEA treated cells compared to control cells (transcript level): 7.6
Gene IL23A (Hs.98309)
  Ratio of BrEA treated cells compared to control cells (transcript level): 131.8
Gene INHBA (Hs.727)
  Ratio of BrEA treated cells compared to control cells (transcript level): 21.5
Gene KIAA1376 (Hs.24684)
  Ratio of BrEA treated cells compared to control cells (transcript level): 7.7
Gene KIAA1726 (Hs.164719)
  Ratio of BrEA treated cells compared to control cells (transcript level): 6.9
Gene LOC51285 (Hs.27018)
  Ratio of BrEA treated cells compared to control cells (transcript level): 5.9
Gene MACS (Hs.75607)
  Ratio of BrEA treated cells compared to control cells (transcript level): 30.0
Gene MAIL (Hs.301183)
  Ratio of BrEA treated cells compared to control cells (transcript level): 25.5
Gene MAP3K5 (Hs.151988)
  Ratio of BrEA treated cells compared to control cells (transcript level): 7.1
Gene MGC5618 (Hs.177781)
  Ratio of BrEA treated cells compared to control cells (transcript level): 32.0
Gene NAF1 (Hs.109281)
  Ratio of BrEA treated cells compared to control cells (transcript level): 6.4
Gene NFKBIA (Hs.81328)
  Ratio of BrEA treated cells compared to control cells (transcript level): 11.3
Gene OLR1 (Hs.77729)
  Ratio of BrEA treated cells compared to control cells (transcript level): 26.1
Gene PBEF (Hs.239138)
  Ratio of BrEA treated cells compared to control cells (transcript level): 9.2
Gene PIM2 (Hs.80205)
  Ratio of BrEA treated cells compared to control cells (transcript level): 14.5
Gene PKIG (Hs.3407)
  Ratio of BrEA treated cells compared to control cells (transcript level): 5.4
Gene PTX3 (Hs.2050)
  Ratio of BrEA treated cells compared to control cells (transcript level): 1348.4
Gene REV3L (Hs.115521)
  Ratio of BrEA treated cells compared to control cells (transcript level): 5.3
Gene RGS16 (Hs.183601)
  Ratio of BrEA treated cells compared to control cells (transcript level): 29.2
Gene RIPK2 (Hs.103755)
  Ratio of BrEA treated cells compared to control cells (transcript level): 6.6
Gene SCYA1 (Hs.72918)
  Ratio of BrEA treated cells compared to control cells (transcript level): 40.4
Gene SCYA4 (Hs.75703)
  Ratio of BrEA treated cells compared to control cells (transcript level): 67.3
Gene SCYA8 (Hs.271387)
  Ratio of BrEA treated cells compared to control cells (transcript level): 7.0
Gene SCYA20 (Hs.75498)
  Ratio of BrEA treated cells compared to control cells (transcript level): 174.0
Gene SERPINE1 (Hs.82085)
  Ratio of BrEA treated cells compared to control cells (transcript level): 8.4
Gene SOD2 (Hs.318885)
  Ratio of BrEA treated cells compared to control cells (transcript level): 39.7
Gene SSI-1 (Hs.50640)
  Ratio of BrEA treated cells compared to control cells (transcript level): 16.9
Gene STAT5A (Hs.167503)
  Ratio of BrEA treated cells compared to control cells (transcript level): 5.9
Gene STK2 (Hs.1087)
  Ratio of BrEA treated cells compared to control cells (transcript level): 9.0
Gene TNFAIP2 (Hs.101382)
  Ratio of BrEA treated cells compared to control cells (transcript level): 17.4
Gene TNFAIP3 (Hs.211600)
  Ratio of BrEA treated cells compared to control cells (transcript level): 5.1
Gene TNFAIP6 (Hs.29352)
  Ratio of BrEA treated cells compared to control cells (transcript level): 1733.0
Gene TRAF1 (Hs.2134)
  Ratio of BrEA treated cells compared to control cells (transcript level): 15.0
Gene TRG@ (Hs.112259)
  Ratio of BrEA treated cells compared to control cells (transcript level): 17.4
